These results are taken from patent US20240190878A1, “ANTIVIRAL PRODRUGS OF ETV AND FORMULATIONS THEREOF” (THE SCRIPPS RESEARCH INSTITUTE, priority 2022, published 2024).

Data set [1] can be described thus: Single dose rat PK, intramuscular (Example 39). The data set is classed as in vivo, Male SD rats. As for the experimental part:
(§1) Animals. Animals (Male SD rats ˜200-250 g and Male Beagle dog ˜12-15 kg) were obtained from an approved vendor.
(§2) Animals were […] at least 12 hours prior to the administration. All animals had access to Certified Rodent and non-Rodent Diet ad libitum 4 hours post dosing.
(§3) Dose Formulation. The formulations were prepared on the day of dosing. Animals were dosed within four hours after the formulation is prepared. Two 20 μL aliquots of each formulation were removed from each of the formulation solutions, transferred into 1.5 mL of polypropylene microcentrifuge tubes and run dose validation by LC/UV or LC-MS/MS.
(§4) Dose Administration. For SC/IM dosing, the dose formulation was administered via subcutaneous/intramuscular injection respectively following facility SOPs.
(§5) Sample Collection. Approximately 200 μL blood was collected from saphenous vein at each time point for rats and 0.5 mL for rhesus macaques. All blood samples were transferred into microcentrifuge tubes containing 4 μL of K2EDTA (0.5M) as anti-coagulant and placed on wet ice until processed for plasma.
(§6) Blood/Plasma processing. Blood: Blood samples were processed for plasma by centrifugation at approximately 4° C., 3000 g 15 min within half an hour of collection. Plasma samples was stored in polypropylene tubes, quick frozen over dry ice and kept at −70±10° C. until LC/MS/MS analysis.
(§7) • LC-MS/MS methods for the quantitative determination of test compound in corresponded biological matrix was developed under non-GLP compliance. • A calibration curve with 8 non-zero calibration standards was applied for the method including LLOQ. • A set of QC samples consisting of low, middle, and high concentration was applied for the method. • The study sample analysis will be performed concurrently with a set of calibration standards and two sets of QC samples using the LC-MS/MS method (If sample numbers were more than 48, then two calibration curves with 2 sets of QC samples were applied). • Acceptance criteria: • Linearity: a minimum of 6 calibration standards was back calculated to within ±20% of their nominal values in plasma. • Accuracy: A minimum of 4 out of 6 QC samples was back calculated to within ±20% of their nominal values in plasma. • Specificity: The mean calculated concentration in the single blank matrix should be 0.5 times the LLOQ. • Sensitivity: the LLOQ will be tried to target 1˜3 ng/mL. • Carryover: the mean calculated carry-over concentration in the single blank matrix immediately after the highest standard injection should be LLOQ. If the carryover couldn't meet the criteria, then the percent of carryover should be estimated following in-house bioanalytical SOP.
Data Analysis. Plasma concentration versus time data was analyzed by non-compartmental approaches using the Phoenix WinNonlin 6.3 software program. Cmax, Tmax, T1/2, AUC(0-1), AUC(0-int), MRT(0-1), MRT(0-int), % F and graphs of plasma concentration versus time profile were reported.
Bis-DHA prodrug 9 (31 mg/kg equivalent dose of ETV) and ETV (20 mg/kg) were subjected to single dose rat PK studies via intramuscular route of administration. Non-micronized prodrug and ETV were used. […] Enhanced half-life and mean residence life were also observed for prodrug 9 making it suitable as a long-acting agent.
The data are shown in graphic form in FIG. 18.

The conditions of data set [2]: male, beagle, dog, in vivo, 20 mg/kg. The procedure:
as §1, §2, §3, §4, §5, §6, §7
(§8) Data Analysis. Plasma concentration versus time data was analyzed by non-compartmental approaches using the Phoenix WinNonlin 6.3 software program.
The aqueous suspension formulations were derived from 0.5% CMC-Na and 0.5% Tween 80. […] Micronized ETV (D50=2.4 um; D90=5.0 um) and prodrug 29 (D50=1.8 um; D90=4.0 um) and non-micronized prodrug 11 (D50=4.4 um; D90=13.0 um) were used for this study.

Data set [3] is described as follows: Single dose dog PK, intramuscular and subcutaneous, monitored 56 days (Example 41). The data set is classed as in vivo, Male Beagle dog. Conditions: dose-normalized. The procedure: as §1, §2, §3, §4, §5, §6, §7, §8
The aqueous suspension formulations were derived from 0.5% CMC-Na and 0.5% Tween 80. […] Micronized ETV-palmitate (D50=3.0 um; D90=10.5 um) and prodrug 36 (D50=7.0 um; D90=16.6 um) and non-micronized prodrug 11 (D50=4.4 um; D90=13.0 um) were used for this study.
The data are shown in graphic form in FIG. 12.

SMILES strings stand for the structures. Where two headings read alike, the source gives them in different places.

On to `C=C1[C@H](CO)[C@@H](O)C[C@@H]1n1cnc2c(=O)[nH]c(N)nc21` [ETV, Entecavir], for which, in data set [1] (in vivo, im), the “d.n. Cmax” value is given as 91.65 ng/mL/mg/kg. Moreover, in data set [1] (male, SD, in vivo), the Clast was 1.4 ng/mL and the “day of Clast” value was determined as 5 days. For the same compound, in data set [2], the Clast is listed as 0.2 ng/mL and the “day of Clast” value is 41 days. Moreover, in data set [2] (im), the AUC0-inf is 25294 ± 2044 ng·h/mL; the AUC0-last is 25134 ± 1970 ng·h/mL; the Cmax – broadly, the maximum level reached in the sampled fluid or tissue – came out at 2390 ± 219 ng/mL; the MRT0-inf was 30.8 ± 4.8 h. In data set [2] (im), the T1/2 amounted to 18.2 ± 11 days and the Tmax (in general, the time at which the peak concentration occurs) is 2.3 ± 1.2 h.

As for `C=C1[C@H](COC(=O)CC/C=C\C/C=C\C/C=C\C/C=C\C/C=C\C/C=C\CC)[C@@H](OC(=O)CC/C=C\C/C=C\C/C=C\C/C=C\C/C=C\C/C=C\CC)C[C@@H]1n1cnc2c(=O)[nH]c(N)nc21` [Prodrug 9, (4Z,7Z,10Z,13Z,16Z,19Z)-(1S,2R,4S)-4-(2-amino-6-oxo-1H-purin-9(6H)-yl)-2-(((4Z,7Z,10Z,13Z,16Z,19Z)-docosa-4,7,10,13,16,19-hexaenoyloxy)methyl)-3-methylenecyclopentyl docosa-4,7,10,13,16,19-hexaenoate], the “half-life and mean residence life” value in data set [1] (single IM dose, compared with ETV) was “Enhanced”. Besides, the “d.n. Cmax” value in data set [1] (single IM dose, dose-normalized) worked out at 0.37 ng/mL/mg/kg.

As to `C=C1[C@H](COC(=O)Cc2ccccc2)[C@@H](OC(=O)Cc2ccccc2)C[C@@H]1n1cnc2c(=O)[nH]c(N)nc21` [Prodrug 11, ((1R,3S,5S)-3-(2-amino-6-oxo-1H-purin-9(6H)-yl)-2-methylene-5-(2-phenylacetoxy)cyclopentyl)methyl 2-phenylacetate], the “d.n. AUC0-last” value stood at 1286 ng·h/mL/mg/kg in data set [3] (single IM dose) and 874 ng·h/mL/mg/kg in data set [3] (single SC dose). For the same compound, the “d.n. Cmax” value in data set [3] (single IM dose) stood at 2.2 ng/mL/mg/kg; in data set [3] (single SC dose), 1.8 ng/mL/mg/kg.

`C=C1[C@H](CO)[C@@H](OC(=O)Cc2ccccc2)C[C@@H]1n1cnc2c(=O)[nH]c(N)nc21` [Prodrug 36]: in data set [3] (single SC dose), the “d.n. AUC0-last” value was 1586 ng·h/mL/mg/kg and the “d.n. Cmax” value is 8.2 ng/mL/mg/kg.
